{
  "source": "paper PMC6164072",
  "about": "“Lysoquinone-TH1, a New Polyphenolic Tridecaketide Produced by Expressing the Lysolipin Minimal PKS II in Streptomyces albus” (Antibiotics, 2018)",
  "target": "T1, PDE-4B2 (Homo sapiens, UniProt Q07343)",
  "T1 construct": "gene PDE4B; human recombinant PDE-4B2 (BPS Bioscience no. 60042)",
  "T1 sequence (Q07343 1-564 isoform Q07343-2)": "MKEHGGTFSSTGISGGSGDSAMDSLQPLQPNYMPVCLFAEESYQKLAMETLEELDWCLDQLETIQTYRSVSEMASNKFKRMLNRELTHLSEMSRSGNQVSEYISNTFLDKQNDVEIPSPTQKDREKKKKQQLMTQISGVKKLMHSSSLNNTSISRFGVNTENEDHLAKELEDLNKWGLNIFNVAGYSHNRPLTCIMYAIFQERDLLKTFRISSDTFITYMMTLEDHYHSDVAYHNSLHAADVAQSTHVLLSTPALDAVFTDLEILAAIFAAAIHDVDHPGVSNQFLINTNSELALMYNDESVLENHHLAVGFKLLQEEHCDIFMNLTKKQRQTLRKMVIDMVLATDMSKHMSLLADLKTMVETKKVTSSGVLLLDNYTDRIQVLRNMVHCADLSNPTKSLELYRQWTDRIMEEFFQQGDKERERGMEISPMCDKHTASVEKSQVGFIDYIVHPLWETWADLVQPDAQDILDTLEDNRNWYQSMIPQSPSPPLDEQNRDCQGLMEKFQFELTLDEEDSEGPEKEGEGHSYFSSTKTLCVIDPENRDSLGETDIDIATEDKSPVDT",
  "assay": "PDELight HTS cAMP phosphodiesterase luminescence assay",
  "type": "biochemical",
  "data": [
    {"substance": "lysoquinone-TH1 [compound 7]", "values": [
      {"measurement": "IC50", "value": "10 to 20", "unit": "µM"}
    ]}
  ]
}
